# Results: patent publication EP0552417B1, “Cyclic peptides and use thereof” (priority 1991, dated 1993)
# pIC50: −log10 of the molar value. Read-outs that look alike come from different tables or passages of the source. Non-standard residues stand in square brackets, D forms with d. Residues, ends and D or L forms follow the SMILES beside them. Groups on a side chain read outwards from the residue. *: point of attachment. NHPhenethyl = c1ccc(CCN*)cc1; X2 = c1ccc2c(c1)CCN2*; NHBn = c1ccc(CN*)cc1
# Tests used:
# NK2 receptor = target: T1, NK2 receptor (Bos taurus, UniProt P05363); test: Assay of affinity for receptor (3): binding inhibiting activity on NK2 receptor, 125I-neurokinin A, membrane fraction of bovine third stomach inner wall; conditions: 125I-NKA, 25°C, 3 hours
# T1 construct: The membrane fraction containing the receptor was prepared from the inner wall of the bovine third stomach; tissue Kyoto Chuo Chikusan Fukuseibutsu Oroshi Kyoukai (tissue); host or cells: inner wall of bovine third stomach, membrane fraction
# T1 sequence (P05363 1-384): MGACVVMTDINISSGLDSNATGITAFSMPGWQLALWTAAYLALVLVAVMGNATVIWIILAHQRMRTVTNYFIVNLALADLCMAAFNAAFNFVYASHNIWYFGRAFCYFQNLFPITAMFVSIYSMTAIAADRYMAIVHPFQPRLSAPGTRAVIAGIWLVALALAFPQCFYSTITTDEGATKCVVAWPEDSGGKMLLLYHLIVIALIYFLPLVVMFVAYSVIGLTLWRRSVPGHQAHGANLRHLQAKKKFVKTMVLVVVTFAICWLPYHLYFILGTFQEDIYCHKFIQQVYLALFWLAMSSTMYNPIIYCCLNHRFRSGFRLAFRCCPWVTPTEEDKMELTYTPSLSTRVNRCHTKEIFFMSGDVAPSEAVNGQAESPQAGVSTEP
# Description: Assay of Affinity for Receptor (3) ... Binding Inhibiting Activity on NK2 Receptor
# The method of Paul L. M. Van Giersbergen et al. [Proc. Natl. Acad. Sci. U.S.A., 88, 1661 (1991) was modified for this assay. The membrane fraction containing the receptor was prepared from the inner wall of the bovine third stomach (purchased from Kyoto Chuo Chikusan Fukuseibutsu Oroshi Kyoukai).
# The inner wall of the bovine third stomach stored at-80°C was cut to 1 cm X 1 cm or less, and disrupted in 3 liters/kg of 50 mM Tris-HCl buffer (pH 7.4) supplemented with 120 mM sodium chloride, 5 mM potassium chloride, 0.02% BSA and 5% sucrose, using a polytron homogenizer (Kinematika, Germany). Then, the disrupted product was centrifuged at 1,000 X g for 10 minutes. The supernatant was further centrifuged at 45,000 X g for 20 minutes. The precipitate was suspended in 200 ml of 50 mM Tris-HCl buffer (pH 7.4) supplemented with 300 mM potassium chloride, 10 mM ethylenediaminetetraacetic acid, 0.1 mM phenylmethylsulfonium fluoride and 0.02% BSA, and gently stirred under ice cooling for 60 minutes. The suspension was centrifuged at 45,000 X g for 20 minutes. The precipitate was washed with 200 ml of 50 mM Tris-HCl buffer (pH 7.4), and stored in the frozen state at -40°C as a receptor sample.
# This sample was suspended in a reaction buffer solution [50 mM Tris-HCl buffer (pH 7.4), 0.02% bovine serum albumin and 4 mM manganese chloride] so as to give a protein concentration of 0.7 mg/ml, and 100 µl thereof was used for reaction. A test sample and ^125I-NKA (0.61 KBq, ^125I-neurokinin A, 81.4 TBq/mmol, Du Pont/NEN Research Products, U.S.A.) were also added, and reacted in 0.2 ml of the reaction buffer solution at 25°C for 3 hours. The reaction mixture was rapidly filtered through a glass filter (GF/B, Whatman, U.S.A.) using a cell harvester (Type 290PHD, Cambridge Technology Inc.) to terminate the reaction, and washed 3 times with 250 µl of 50 mM Tris-HCl buffer (pH 7.4) supplemented with 0.02% bovine serum albumin. The radioactivity left on the filter was measured with a gamma-ray counter. Results are shown in Table 1 as the binding inhibiting activity (IC50, unit: µM) on the NK2 receptor.
# [1] = target: T2, endothelin receptor A (ETA) (Sus scrofa, UniProt Q29010); test: Assay of affinity for receptor (1): binding activity on ETA receptor, 125I-labeled endothelin-1, porcine heart membrane fraction; design: key: relative specific activity; reference cyclic pentapeptide ETA binding = 1.0; conditions: specific activity, taking the binding activity of control cyclo[-D-Glu-Ala-D-aIle-Leu-D-Trp-] on receptor A as 1.0, 25°C, 1 hour
# T2 construct: A membrane fraction prepared from the porcine heart; from tissue; host or cells: porcine heart membrane fraction
# T2 sequence (Q29010 21-427): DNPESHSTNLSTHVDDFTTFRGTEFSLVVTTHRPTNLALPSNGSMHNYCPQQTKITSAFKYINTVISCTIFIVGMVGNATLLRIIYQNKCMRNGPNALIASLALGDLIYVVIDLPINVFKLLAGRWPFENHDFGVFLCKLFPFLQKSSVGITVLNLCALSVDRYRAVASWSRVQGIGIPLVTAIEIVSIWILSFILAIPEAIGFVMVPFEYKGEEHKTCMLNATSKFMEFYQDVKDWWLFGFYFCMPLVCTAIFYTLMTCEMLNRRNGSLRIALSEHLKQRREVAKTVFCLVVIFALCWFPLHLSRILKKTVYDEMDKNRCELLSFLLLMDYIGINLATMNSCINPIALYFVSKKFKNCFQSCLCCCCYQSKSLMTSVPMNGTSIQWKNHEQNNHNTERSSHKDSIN
# In short: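 Porcine heart membranes (0.15 mg/ml) incubated with 125I-endothelin-1 and test peptide for 1 h at 25°C, then centrifuged; pellet-bound radioactivity counted by gamma counter. Values given as specific activity relative to reference cyclo[-D-Glu-Ala-D-aIle-Leu-D-Trp-], set at 1.0.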
# ETB = ETB radio receptor assay *2, 125I-endothelin-1, guinea pig kidney crude membrane fraction; format: binding, Guinea pigs; conditions: relative activity, 37 °C, 90 minutes
# In short: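 Radioligand binding used crude guinea pig kidney membranes (2.1 µg protein) with 740 Bq 125I-endothelin-1. Incubation was 90 min at 37 °C in 50 mM Tris-HCl pH 7.4, 0.1 mM PMSF, 1 mM EDTA, 0.2% BSA. Bound radioactivity was collected by GF/B filtration and measured by gamma counting.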
# [2] = target: T3, endothelin receptor B (ETB) (Bos taurus, UniProt P28088); test: Assay of affinity for receptor (2): binding activity on ETB receptor *1, 125I-labeled endothelin-1, bovine brain membrane fraction; conditions: specific activity, taking the binding activity of the compound of Example 8 on receptor B as 100, 25°C, 1 hour
# T3 construct: A membrane fraction prepared from the bovine brain; from tissue; host or cells: bovine brain membrane fraction
# T3 sequence (P28088 27-441): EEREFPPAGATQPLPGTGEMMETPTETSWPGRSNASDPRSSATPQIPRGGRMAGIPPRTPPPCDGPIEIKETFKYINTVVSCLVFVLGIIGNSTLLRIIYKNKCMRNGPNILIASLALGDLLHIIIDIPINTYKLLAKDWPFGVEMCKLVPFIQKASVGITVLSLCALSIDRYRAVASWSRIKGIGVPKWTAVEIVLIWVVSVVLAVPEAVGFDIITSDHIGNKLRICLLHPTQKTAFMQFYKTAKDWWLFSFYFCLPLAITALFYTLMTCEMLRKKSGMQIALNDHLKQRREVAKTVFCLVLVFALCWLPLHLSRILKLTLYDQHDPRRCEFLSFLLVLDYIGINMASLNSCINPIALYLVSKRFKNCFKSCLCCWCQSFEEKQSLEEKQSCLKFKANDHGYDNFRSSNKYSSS
# Description: Assay of Affinity for Receptor (2) ... Binding Activity on ETB Receptor *1
# A membrane fraction prepared from the bovine brain was diluted to 0.15 mg/ml by using a buffer solution for assay, and 100 µl of the resulting suspension of the membrane fraction was poured into each assay tube to use for assay. To this suspension of the membrane fraction was added 2 µl of 5 nM ^125I labeled endothelin-1 solution. Further, 3 µl of a test peptide solution was added thereto, followed by incubation at a temperature of 25°C for 1 hour. Then, the resulting suspension was diluted with 900 µl of the buffer solution for assay cooled with ice, and thereafter separated into a supernatant and a precipitate by centrifugation at 12,000 X g for 10 minutes. Cell membranes and an endothelin receptor B (ETB) embedded therein were contained in the precipitate, and radioactive iodine-labeled endothelin bound to the receptor was also recovered in the precipitate. Accordingly, the amount of radioactive iodine-labeled endothelin bound to the endothelin receptor B (ETB) was determined by measuring the amount of radioactive iodine contained in the precipitate with a gamma-ray counter. The numerical value of ETB shown in Table 1 is the value of specific activity, taking the binding activity of the compound of Example 8 on the receptor B as 100.
# [3] = amide bond, DCC/HONB (active ester), TEA, DMF, 16.0 h, 4 steps
# [4] = amide bond; 18-membered ring; HONB/DCC preactivation; HCl; DIEA; DMF; 4.75 mM; 3 steps
Compound,pIC50 (NK2 receptor),Binding Activity on ET Receptor (R. act.) ETA [1],Binding Activity on ET Receptor (R. act.) ETB*2 (ETB),also measured
"CC(C)C[C@@H]1NC(=O)[C@H](CC(=O)O)NC(=O)[C@@H](CC(=O)O)NC(=O)[C@@H](Cc2c[nH]c3ccccc23)NC(=O)[C@H](CC(C)C)NC(=O)[C@@H](CC(C)C)NC1=O [Example 32, Cyclo[-D-Asp-Asp-Leu-D-Leu-Leu-D-Trp-]] (cyclo(DL[dL]L[dW][dD]))",5.59,4.0,7.7,
"CC(C)C[C@@H]1NC(=O)[C@@H](CC(C)C)NC(=O)[C@H](Cc2c[nH]c3ccccc23)NC(=O)[C@H](CC(=O)O)NC(=O)[C@@H](CC(=O)O)NC(=O)[C@@H](Cc2c[nH]c3ccccc23)NC1=O [Example 33, Cyclo[-D-Asp-Asp-Trp-D-Leu-Leu-D-Trp-]] (cyclo(DW[dL]L[dW][dD]))",6.46,2.9,5.6,
"CC(C)C[C@@H]1NC(=O)[C@@H](Cc2ccccc2)NC(=O)[C@H](CC(=O)O)NC(=O)[C@H](Cc2c[nH]c3ccccc23)NC(=O)[C@@H](CC(=O)O)NC(=O)[C@@H](Cc2c[nH]c3ccccc23)NC1=O [Example 60, Cyclo[-D-Asp-Trp-Asp-D-Phe-Leu-D-Trp-]] (cyclo(D[dF]L[dW][dD]W))",,1,44,Binding Activity on ET Receptor (R. act.) ETB*1 [2]: 210
"CC(C)C[C@@H]1NC(=O)[C@@H](CC(C)C)NC(=O)[C@H](CC(=O)O)NC(=O)[C@H](CCC(=O)N2CCc3ccccc32)NC(=O)[C@@H](CC(=O)O)NC(=O)[C@@H](Cc2c[nH]c3ccccc23)NC1=O [Example 76, Cyclo[-D-Asp-Glu(R3)-Asp-D-Leu-Leu-D-Trp-]] (cyclo(D[dL]L[dW][dD]E(X2)))",5.00,,,
"CC(C)C[C@@H]1NC(=O)[C@@H](CC(C)C)NC(=O)[C@H](CC(=O)O)NC(=O)[C@H](CC(=O)N[C@@H](Cc2c[nH]c3ccccc23)C(=O)NCc2ccccc2)NC(=O)[C@@H](CC(=O)O)NC(=O)[C@@H](Cc2c[nH]c3ccccc23)NC1=O [Example 92, Cyclo[-D-Asp-Asp(Trp-NHBzl)-Asp-D-Leu-Leu-D-Trp-]] (cyclo(D([Trp-NHBn])D[dL]L[dW][dD]))",5.40,,,
"CC(C)C[C@@H]1NC(=O)[C@@H](CC(C)C)NC(=O)[C@H](CC(=O)O)NC(=O)[C@H](CC(=O)N[C@@H](Cc2c[nH]c3ccccc23)C(=O)NCCc2ccccc2)NC(=O)[C@@H](CC(=O)O)NC(=O)[C@@H](Cc2c[nH]c3ccccc23)NC1=O [Example 94, Cyclo[-D-Asp-Asp(Trp-NHCH2CH2Ph)-Asp-D-Leu-Leu-D-Trp-]] (cyclo(D([Trp-NHPhenethyl])D[dL]L[dW][dD]))",5.24,,,
CC(C)C[C@@H]1NC(=O)[C@@H](c2cccs2)NC(=O)[C@H](CC(=O)O)NC(=O)[C@H](CCC(=O)NCc2ccccc2)NC(=O)[C@@H](CC(=O)O)NC(=O)[C@@H](Cc2c[nH]c3ccccc23)NC1=O [cyclo[-D-Asp-Gln(Bzl)-Asp-D-Thg(2)-Leu-D-Trp-]],,,,"ring closure, yield of all isomers ([3]; from CC(C)C[C@H](NC(=O)[C@H](NC(=O)OC(C)(C)C)c1cccs1)C(=O)N[C@H](Cc1c[nH]c2ccccc12)C(=O)N[C@H](CC(=O)OCc1ccccc1)C(=O)N[C@@H](CCC(=O)NCc1ccccc1)C(=O)N[C@@H](CC(=O)OCc1ccccc1)C(=O)O, 5.06 mM): 8.8%"
CC(C)C[C@@H]1NC(=O)[C@@H](c2cccs2)NC(=O)[C@H](CC(=O)O)NC(=O)[C@@H]2C[C@@H](OCc3ccccc3)CN2C(=O)[C@@H](CC(=O)O)NC(=O)[C@@H](Cc2c[nH]c3ccccc23)NC1=O [cyclo[-D-Asp-Hyp(Bzl)-Asp-D-Thg(2)-Leu-D-Trp-]],,,,"ring closure, yield of all isomers ([3]; from CC(C)C[C@H](NC(=O)[C@H](NC(=O)OC(C)(C)C)c1cccs1)C(=O)N[C@H](Cc1c[nH]c2ccccc12)C(=O)N[C@H](CC(=O)OCc1ccccc1)C(=O)N1C[C@H](OCc2ccccc2)C[C@H]1C(=O)N[C@@H](CC(=O)OCc1ccccc1)C(=O)O, 4.98 mM): 5.7%"
CC(C)C[C@@H]1NC(=O)[C@@H](CC(C)C)NC(=O)[C@H](CC(=O)O)NC(=O)[C@H](CCCNC(=O)c2ccccc2)NC(=O)[C@@H](CC(=O)O)NC(=O)[C@@H](Cc2c[nH]c3ccccc23)NC1=O [cyclo[-D-Asp-Orn(COPh)-Asp-D-Leu-Leu-D-Trp-]],,,,"ring closure, yield of all isomers ([3]; from CC(C)C[C@H](NC(=O)[C@@H](CC(C)C)NC(=O)[C@H](CC(=O)OCc1ccccc1)NC(=O)[C@H](CCCNC(=O)c1ccccc1)NC(=O)OC(C)(C)C)C(=O)N[C@H](Cc1c[nH]c2ccccc12)C(=O)N[C@H](CC(=O)OCc1ccccc1)C(=O)O, 5.03 mM): 48.1%"
cyclo[-D-Asp(OBzl)-Asn(NHCH2CH2Ind)-Asp(OBzl)-D-Thg(2)-Leu-D-Trp-],,,,"ring closure, crude yield [4]: 90.4%"
